Source: PubChem BioAssay (NCI)
Values joined by “and” are separate entries in the source; they are usually repeats but may differ in a detail not shown here. Equal values may be shown once.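 Interpolation was linear, between the two tested concentrations surrounding the appropriate level; five concentrations were tested over 48 hours in 96-well plates. GI50 = concentration required for 50% inhibition of growth. At the TGI there is no net growth.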

Legend:
Assay in all cases: NCI-60 cell line screen, 48 h
[1] = system: MDA-N
[2] = system: DLD-1 colon
[3] = system: SNB-78 CNS
[4] = system: HOP-18 NSCLC
[5] = system: DMS 114 small cell lung
[6] = system: RXF-631 renal
[7] = system: LXFL 529 NSCLC
[8] = system: XF 498 CNS
[9] = system: M19-MEL melanoma

SMILES	TGI [1]	TGI [2] [µM]	TGI [3] [µM]	TGI [4] [µM]	TGI [5] [µM]	TGI [6] [µM]	TGI [7] [µM]	TGI [8] [µM]	TGI [9] [µM]	further results
CC1=CC2=C(C#N)C(=O)OC2(C)C(c2ccccc2)C1 (stereo not given)	> 100 µM									
S=C1SCN(C2CCCCCCCCCCC2)CN1C1CCCCCCCCCCC1	> 100 µM									
COc1cc(/C=C2\Cc3ccccc3C2=O)cc(OC)c1OC		> 100	> 100	> 100	> 100	> 100	> 100	> 100	> 100	
C/C(=N\NS(=O)(=O)c1c(C)cc(C)cc1C)c1ccc[n+]([O-])n1		21	68.3	47.3	36.8	93	23.4		29	
Clc1nc(-c2ccccc2)nc(Cl)c1Cl	26.6 µM									
Fc1ccc2c(c1)cc1ccc3cccc4ccc2c1c34		> 100	> 100	> 100	> 100	> 100	> 100	> 100	> 100	
COc1ccc(NS(=O)(=O)c2ccc(N=C3C=C(Nc4ccc(S(=O)(=O)Nc5ccc(OC)nn5)cc4)C(=O)c4ccccc43)cc2)nn1		36.9	> 100	29.7	66.7		57.9	54.3	30.6	
COc1ccc2c(c1OC)C(C=C(c1ccccc1)c1ccccc1)CN(C)C2 (stereo not given)		76.8	> 100	67.7	29.3	66.4	34.7		81	
O=C(COC(=O)c1cccc2c(=O)c3ccccc3[nH]c12)Nc1ccc(S(=O)(=O)Nc2ncccn2)cc1		> 100	74.4		> 100	> 100	> 100	> 100	> 100	
CN=C(N)NC		> 100	> 100	> 100	> 100		> 100	> 100	> 100	
CC(C)c1cc(C(=O)[O-])c(O)c(C(C)C)c1.CC(C)c1cc(C(=O)[O-])c(O)c(C(C)C)c1.CC(C)c1cc(C(=O)[O-])c(O)c(C(C)C)c1.CC(C)c1cc(C(=O)[O-])c(O)c(C(C)C)c1.CC(C)c1cc(C(=O)[O-])c(O)c(C(C)C)c1.CC(C)c1cc(C(=O)[O-])c(O)c(C(C)C)c1.[Cu+2].[Mn+2].[Mn+2]		35.9	> 100	29.1	34.6		46.3	71.5	18.7	GI50 [2]: 17.8 µM; GI50 [3]: 37 µM; GI50 [4]: 13.3 µM; GI50 [5]: 17.8 µM; GI50 [7]: 19.6 µM; GI50 [8]: 30.2 µM; GI50 [9]: 5.67 µM
COc1cc2ccc3c4cc(OC)c(OC(C)C)cc4c[n+](C)c3c2cc1OC		> 100		88.6	41.4		> 100		> 100	
O=C(CC1SC(=Nc2ccccc2Cl)NC1=O)Nc1ccc(Cl)cc1 (stereo not given)		> 100	> 100		> 100		> 100		> 100	
CCOC(=O)c1csc(-c2nc(CCNC(=O)c3ccccc3)sc2Cl)n1	> 100 µM									
CC(C)C1NC(=O)[C@H](C)OC(=O)[C@@H](C(C)C)NC(=O)[C@@H](C)OC(=O)C(C(C)C)NC(=O)[C@H](C)OC1=O (stereo not given in full)		> 100	> 100	> 100	> 100		> 100	> 100	> 100	
CC(=O)OC1(C#N)CC2OC1C1N=NN(C(=O)OC(C)(C)C)C21 (stereo not given)		> 31.6	> 77	> 100	> 74.9		> 100	> 100	> 100	
CCC1(N)C(=O)OCc2c1cc1n(c2=O)Cc2cc3ccccc3nc2-1 (stereo not given)	> 100 µM									GI50 [1]: 21.8 µM
CC(C)(C)C1CCC(=O)C(C(O)CC2CC(=O)N(c3ccccc3)C(=O)C2)C1 (stereo not given)		> 100	> 100	> 100	> 100	> 100	> 100	> 100	> 100	
CN(C)C1C(=O)C(C(N)=O)=C(O)C2(O)C(=O)C3=C(O)c4c(O)cccc4C(C)(O)C3CC12 (stereo not given)	38.9 µM and > 100 µM									GI50 [1]: 17.8 µM and > 100 µM
CC1(C)OC2COC(c3[nH]nc4c(=O)[nH]c(=O)[nH]c34)C2O1 (stereo not given)	> 100 µM									
N.N.NCCCCCN.O=C([O-])CC(=O)[O-].O=C([O-])CC(=O)[O-].[Pt+4].[Pt+4]		> 100		> 100			> 100			GI50 [2]: > 100 µM; GI50 [4]: > 100 µM; GI50 [7]: > 100 µM
Cn1cc2ccccc2c1-c1nc(F)nc(Nc2ccc(N)cc2)n1		34.9	77.7		38.1	38.2	30.9	30	25.2	
CCC(C)(C)NS(=O)(=O)c1ccccc1		> 100	> 100		> 100		> 100	> 100	> 100	
